# According to patent EP4631957A1, “PEPTIDE FOR CARTILAGE REGENERATION, AND USES THEREOF” (Caregen Co., Ltd., priority 2022, dated 2024):
# Where a SMILES comes first, the peptide text is derived from it. Where no end group is shown, it is not given here.
# Test system: C28/I2 cells
# Assay: CCK-8 cytotoxicity assay in human-derived chondrocytes
# Format: cell-based
# Details: peptide at different concentrations, 3 days, read at 450 nm, FIG. 1 and FIG. 2
# Protocol: The cytotoxicity of Peptide-1 or Peptide-2 upon addition to human-derived chondrocytes (C28/I2, human chondrocyte cell line) was analyzed using a CCK-8 assay.
# Specifically, human-derived chondrocytes were seeded in a 96-well plate at a density of 3 × 10^3 cells/well and cultured in DMEM medium (cat. 11995-065, Gibco) for 24 hours. […] Meanwhile, as a negative control group (CON), an experimental group to which the peptide was not added was used.
row,Compound,toxicity in human-derived chondrocytes (CCK-8 activity)
1,"N=C(N)NCCC[C@H](N)C(=O)N[C@@H](Cc1ccc(O)cc1)C(=O)N[C@@H](Cc1ccccc1)C(=O)O [Peptide-1, Arg(R)-Tyr(Y)-Phe(F)] (H-Arg-Tyr-Phe-OH)",did not exhibit toxicity
2,TAVRVG [Peptide-2],did not exhibit toxicity
